In US20090203064A1, “METHOD AND DEVICE FOR MONITORING PLATELET FUNCTION” (PLACOR INC., priority 2002, published 2009):

System: platelet function
Assay: Platelet plug formation time of arterial blood from pigs receiving platelet inhibitors (wire-in-tube device)
Assay type: in vivo
Protocol: Pigs were placed on various platelet inhibitors and then the platelet function of the pigs was monitored. Twenty-five pigs received 300 mg aspirin daily for seven days. Ten pigs received 300 mg ticlopidine (an ADP inhibitor) daily. Ten pigs received a combination of 300 mg aspirin and 300 mg ticlopidine daily. Twenty microliters of blood were drawn into the lumen of the tube at a rate of 1.0 microliter per second. The wire was 0.016 inches in diameter and the inner diameter of the tube was 0.034 inches in diameter. Blood (20 μl) was delivered via a three-way flow divider (a Touhy-Borst Connector) into a TEFLON tube 2 inches long with a stainless steel wire […] in diameter inserted through the tube and extending about three-fourths of the length of the tube. The wire was held in place at the end of the tube. The tube was coupled to a Hamilton syringe pump and to a HP blood pressure transducer for measuring the pressure in the tube. The platelet plug formation time was determined as damping of the blood pressure signal.

| Structure (SMILES) | Mean platelet plug time (300 mg ticlopidine daily, after 3 days) [min] | Mean platelet plug time (300 mg ticlopidine daily, after 7 days) [min] | Mean platelet plug time (300 mg aspirin daily, after 3 days) | Mean platelet plug time (300 mg aspirin daily, after 7 days) |
| --- | --- | --- | --- | --- |
| Clc1ccccc1CN1CCc2sccc2C1 [ticlopidine] | 5.67 | 6.21 |  |  |
| CC(=O)Oc1ccccc1C(=O)O [aspirin] |  |  | 3.9 (± 0.25) minutes | 4.6 (± 0.42) minutes |
